Results published in ChEMBL document CHEMBL1201862, “PubChem BioAssay data set” (2004).
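Step 1: Grow cells in 96-well plates. Step 2: Expose to compound for 48 hours at 5 concentrations. Step 3: Interpolate endpoints linearly; if unreached, use highest concentration. GI50 marks 50% less growth.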 Active and inactive are the calls of the source. Rule as the data show it: active = GI50 up to about 1.1 µM and inactive = higher.

Columns and labels:
Test in all cases: inhibition of tumour cell growth, NCI panel, 48 h
[1] = test system: DMS-273
[2] = test system: DMS-114
[3] = test system: M19-MEL
[4] = test system: XF498
[5] = test system: HOP-18
[6] = test system: DLD-1
[7] = test system: KM-20L2
[8] = test system: SNB-78
[9] = test system: RXF 631

Structure (SMILES)	GI50 [1]	GI50 [2]	GI50 [3]	GI50 [4]	GI50 [5]	GI50 [6]	GI50 [7]	GI50 [8]	GI50 [9]
COc1ccc(C2Oc3c(cc(O)c(OC)c3C)[C@@H]2C)cc1OC (stereo not given in full)	47.6 µM (inactive)	33 µM (inactive)	86.1 µM (inactive)	51.8 µM (inactive)	> 100 µM (inactive)	> 100 µM (inactive)	> 100 µM (inactive)	69.8 µM (inactive)	> 100 µM (inactive)
C=CCCCCCCCCC(=O)NS(=O)(=O)c1ccccc1	88.1 µM (inactive)	> 100 µM (inactive)	> 100 µM (inactive)	> 100 µM (inactive)	40.9 µM (inactive)	96.6 µM (inactive)	> 100 µM (inactive)	> 100 µM (inactive)	> 100 µM (inactive)
COC1N(C2CC(O)C(CO)O2)C(=O)NC(=O)C1(F)Br (stereo not given)	14.7 µM (inactive)	43.9 µM (inactive)	–	17.3 µM (inactive)	> 50 µM (inactive)	16.5 µM (inactive)	16.6 µM (inactive)	> 50 µM (inactive)	6.84 µM (inactive)
CCCCCCCCCCCCCC(=O)OCC1OC(=O)CC1O (stereo not given)	> 100 µM (inactive)	49.4 µM (inactive)	–	> 100 µM (inactive)	0.437 µM (active)	34.8 µM (inactive)	> 100 µM (inactive)	56.1 µM (inactive)	> 100 µM (inactive)
Cc1cc(-c2c(F)cc3c4nn([C@H]5CC[C@@H](N(C)C)CC5)c(=O)c-4cn(C4CC4)c3c2F)cc(C)n1	0.00594 µM (active)	0.024 µM (active)	0.0891 µM (active)	0.318 µM (active)	0.197 µM (active)	0.0428 µM (active)	0.14 µM (active)	0.28 µM (active)	0.0355 µM (active)
CCOC(=O)C1S/C(=N/c2ccc(Cl)cc2C)N=C1C (stereo not given)	24.2 µM (inactive)	12.9 µM (inactive)	20 µM (inactive)	20.9 µM (inactive)	45.8 µM (inactive)	15.1 µM (inactive)	17.4 µM (inactive)	20.4 µM (inactive)	21.1 µM (inactive)
CSC(=N\c1ccccc1)/N=C(\SCc1ccccc1)N(C)C	0.59 µM (active)	1.09 µM (active)	1.66 µM (inactive)	1.33 µM (inactive)	0.774 µM (active)	–	–	1.63 µM (inactive)	1.38 µM (inactive)
O=c1[nH]cc(OCC(F)(F)F)c(=O)[nH]1	> 100 µM (inactive)	> 100 µM (inactive)	> 100 µM (inactive)	> 100 µM (inactive)	> 100 µM (inactive)	> 100 µM (inactive)	> 100 µM (inactive)	> 100 µM (inactive)	> 100 µM (inactive)
COc1ccc(C2C(C)C(=O)C(C)C(c3ccc(OC)cc3)N2N=O)cc1 (stereo not given)	> 514 µM (inactive)	> 750 µM (inactive)	> 750 µM (inactive)	166 µM (inactive)	> 100 µM (inactive)	> 1000 µM (inactive)	> 925 µM (inactive)	121 µM (inactive)	> 95.3 µM (inactive)
COc1ccc(C=O)c([N+](=O)[O-])c1	25.4 µM (inactive)	24 µM (inactive)	63.5 µM (inactive)	13.3 µM (inactive)	38.8 µM (inactive)	–	14 µM (inactive)	42.4 µM (inactive)	57.7 µM (inactive)
